# Assay results reported in publication PMC10612255, “Discovery of novel 2,3,4,5-tetrahydrospiro[benzo[c]azepine-1,1’-cyclohexan]-5-ol derivatives as PARP-1 inhibitors” (BMC Chemistry, 2023).
# Where two headings read alike, the source gives them in different places.
# Columns and labels:
# MCF-7 = assay: MTT assay, anti-proliferative effect on MCF-7 cells; type: cell-based, human; settings: read-out: IC50 MCF-7
# Procedure: (§1) A549, OVCAR-3, HCT-116, and MCF-7 were purchased from American type culture collection (ATCC, USA). […] And all cell lines used in the experiment were tested for mycoplasma contamination every two weeks.
# (§2) A549, OVCAR-3, HCT-116, and MCF-7 cells were seeded in 96-well plates, and then treated with target compounds for 72 h. Then, 20 µL MTT (5 mg/mL, in PBS) was added into each well, and dissolved in 150 µL DMSO after incubation for 4 h. Finally, the absorbance was measured with microplate reader (490 nm).
# OVCAR-3 = assay: MTT assay, anti-proliferative effect on OVCAR-3 cells; type: cell-based, human; settings: read-out: IC50 OVCAR-3
# Procedure: as §1, §2
# HCT-116 = assay: MTT assay, anti-proliferative effect on HCT-116 cells; type: cell-based, human; settings: read-out: IC50 HCT-116
# Procedure: as §1, §2
# A549 = assay: MTT assay, anti-proliferative effect on A549 cells; type: cell-based, human; settings: read-out: IC50 A549
# Procedure: as §1, §2
"IC50 (MCF-7; MCF7, human breast cancer cell line, MTT, 72 h, Mean ± SD)","IC50 (OVCAR-3; OVCAR-3, human ovarian cancer cell line, MTT, 72 h, Mean ± SD)","IC50 (HCT-116; HCT-116, human colon cancer cell line, MTT, 72 h, Mean ± SD)","IC50 (A549; A549, human lung adenocarcinoma cell line, MTT, 72 h, Mean ± SD)",Compound,"IC50 (MCF-7; Homo sapiens, MCF7, 72 h)",melting point,"IC50 (OVCAR-3; Homo sapiens, OVCAR-3, 72 h)","IC50 (HCT-116; Homo sapiens, HCT-116, 72 h)","IC50 (A549; Homo sapiens, A549, 72 h)"
–,–,–,–,"COc1cccc(-n2cc(CN3CCC(O)c4ccccc4C34CCCCC4)nn2)c1 (stereo not drawn) [Compound 11 L, 2-((1-(3-methoxyphenyl)-1 H-1,2,3-triazol-4-yl)methyl)-2,3,4,5-tetrahydrospiro[benzo[c]azepine-1,1’-cyclohexan]-5-ol]",8.54 ± 1.65 µM,172.3 to 174.1 °C,6.14 ± 0.56 µM,11.7 ± 4.88 µM,11.1 ± 2.98 µM
–,–,–,–,"Cc1ccc(-n2cc(CN3CCC(O)c4ccccc4C34CCCCC4)nn2)cc1 (stereo not drawn) [Compound 11 g, 2-((1-(p-tolyl)-1 H-1,2,3-triazol-4-yl)methyl)-2,3,4,5-tetrahydrospiro[benzo[c]azepine-1,1’-cyclohexan]-5-ol]",7.96 ± 1.1 µM,164.3 to 165.2 °C,4.64 ± 0.99 µM,9.81 ± 2.89 µM,6.84 ± 1.68 µM
–,–,–,–,"OC1CCN(Cc2cn(-c3ccccc3Cl)nn2)C2(CCCCC2)c2ccccc21 (stereo not drawn) [Compound 11 h, 2-((1-(2-chlorophenyl)-1 H-1,2,3-triazol-4-yl)methyl)-2,3,4,5-tetrahydrospiro[benzo[c]azepine-1,1’-cyclohexan]-5-ol]",6.5 ± 1.78 µM,167.9 to 168.3 °C,4.44 ± 0.1 µM,8.97 ± 3.16 µM,15.1 ± 1.18 µM
–,–,–,–,"COc1ccc(-n2cc(CN3CCC(O)c4ccccc4C34CCCCC4)nn2)cc1 (stereo not drawn) [Compound 11 m, 2-((1-(4-methoxyphenyl)-1 H-1,2,3-triazol-4-yl)methyl)-2,3,4,5-tetrahydrospiro[benzo[c]azepine-1,1’-cyclohexan]-5-ol]",9.33 ± 1.33 µM,170.2 to 172.3 °C,6 ± 1.83 µM,5.87 ± 0.54 µM,8.7 ± 4.1 µM
–,–,–,–,"OC1CCN(Cc2cn(-c3ccccc3)nn2)C2(CCCCC2)c2ccccc21 (stereo not drawn) [Compound 11a, 2-((1-phenyl-1 H-1,2,3-triazol-4-yl)methyl)-2,3,4,5-tetrahydrospiro[benzo[c]azepine-1,1’-cyclohexan]-5-ol]",15.5 ± 2.53 µM,–,13.6 ± 2.45 µM,10.3 ± 2.74 µM,9.5 ± 1.23 µM
–,–,–,–,"OC1CCN(Cc2cn(-c3cccc(F)c3)nn2)C2(CCCCC2)c2ccccc21 (stereo not drawn) [Compound 11c, 2-((1-(3-fluorophenyl)-1 H-1,2,3-triazol-4-yl)methyl)-2,3,4,5-tetrahydrospiro[benzo[c]azepine-1,1’-cyclohexan]-5-ol]",7.6 ± 1.96 µM,–,7.65 ± 2.56 µM,12.6 ± 2.43 µM,4.29 ± 0.56 µM
–,–,–,–,"OC1CCN(Cc2cn(-c3ccc(F)cc3)nn2)C2(CCCCC2)c2ccccc21 (stereo not drawn) [Compound 11d, 2-((1-(4-fluorophenyl)-1 H-1,2,3-triazol-4-yl)methyl)-2,3,4,5-tetrahydrospiro[benzo[c]azepine-1,1’-cyclohexan]-5-ol]",16.2 ± 3.88 µM,166.2 to 166.8 °C,17.1 ± 1.5 µM,8.76 ± 3.11 µM,4.88 ± 1.18 µM
–,–,–,–,"Cc1ccccc1-n1cc(CN2CCC(O)c3ccccc3C23CCCCC3)nn1 (stereo not drawn) [Compound 11e, 2-((1-(o-tolyl)-1 H-1,2,3-triazol-4-yl)methyl)-2,3,4,5-tetrahydrospiro[benzo[c]azepine-1,1’-cyclohexan]-5-ol]",9.33 ± 4.08 µM,165.2 to 166 °C,7.95 ± 3.35 µM,9.22 ± 4.57 µM,15.6 ± 2.8 µM
–,–,–,–,"Cc1cccc(-n2cc(CN3CCC(O)c4ccccc4C34CCCCC4)nn2)c1 (stereo not drawn) [Compound 11f, 2-((1-(m-tolyl)-1 H-1,2,3-triazol-4-yl)methyl)-2,3,4,5-tetrahydrospiro[benzo[c]azepine-1,1’-cyclohexan]-5-ol]",8.94 ± 3.17 µM,167.3 to 168.2 °C,21.7 ± 8.94 µM,12.2 ± 2.01 µM,11.8 ± 1.07 µM
–,–,–,–,"OC1CCN(Cc2cn(-c3cccc(Cl)c3)nn2)C2(CCCCC2)c2ccccc21 (stereo not drawn) [Compound 11i, 2-((1-(3-chlorophenyl)-1 H-1,2,3-triazol-4-yl)methyl)-2,3,4,5-tetrahydrospiro[benzo[c]azepine-1,1’-cyclohexan]-5-ol]",6.34 ± 3.17 µM,168.1 to 168.8 °C,4.28 ± 0.77 µM,10.8 ± 2.95 µM,13.6 ± 2.47 µM
–,–,–,–,"OC1CCN(Cc2cn(-c3ccc(Cl)cc3)nn2)C2(CCCCC2)c2ccccc21 (stereo not drawn) [Compound 11j, 2-((1-(4-chlorophenyl)-1 H-1,2,3-triazol-4-yl)methyl)-2,3,4,5-tetrahydrospiro[benzo[c]azepine-1,1’-cyclohexan]-5-ol]",5.27 ± 0.92 µM,165.6 to 166.3 °C,5.79 ± 1.25 µM,17.9 ± 1.95 µM,18.8 ± 2.67 µM
–,–,–,–,"COc1ccccc1-n1cc(CN2CCC(O)c3ccccc3C23CCCCC3)nn1 (stereo not drawn) [Compound 11k, 2-((1-(2-methoxyphenyl)-1 H-1,2,3-triazol-4-yl)methyl)-2,3,4,5-tetrahydrospiro[benzo[c]azepine-1,1’-cyclohexan]-5-ol]",7.54 ± 1.05 µM,–,10.5 ± 0.09 µM,13.1 ± 2.03 µM,12.6 ± 5.91 µM
–,–,–,–,"OC1CCN(Cc2cn(-c3ccccc3Br)nn2)C2(CCCCC2)c2ccccc21 (stereo not drawn) [Compound 11n, 2-((1-(2-bromophenyl)-1 H-1,2,3-triazol-4-yl)methyl)-2,3,4,5-tetrahydrospiro[benzo[c]azepine-1,1’-cyclohexan]-5-ol]",10.6 ± 0.85 µM,168.2 to 169.8 °C,12.6 ± 1.55 µM,15.7 ± 1.98 µM,17.9 ± 3.94 µM
–,–,–,–,"OC1CCN(Cc2cn(-c3cccc(Br)c3)nn2)C2(CCCCC2)c2ccccc21 (stereo not drawn) [Compound 11o, 2-((1-(3-bromophenyl)-1 H-1,2,3-triazol-4-yl)methyl)-2,3,4,5-tetrahydrospiro[benzo[c]azepine-1,1’-cyclohexan]-5-ol]",7.99 ± 2.53 µM,169.3 to 170.2 °C,4.2 ± 0.48 µM,10.8 ± 2.11 µM,7.4 ± 1.75 µM
–,–,–,–,"OC1CCN(Cc2cn(-c3ccc(Br)cc3)nn2)C2(CCCCC2)c2ccccc21 (stereo not drawn) [Compound 11p, 2-((1-(4-bromophenyl)-1 H-1,2,3-triazol-4-yl)methyl)-2,3,4,5-tetrahydrospiro[benzo[c]azepine-1,1’-cyclohexan]-5-ol]",16.4 ± 4.37 µM,–,12.7 ± 1.43 µM,9.93 ± 3.01 µM,9.58 ± 2.53 µM
–,–,–,–,"Oc1ccccc1-n1cc(CN2CCC(O)c3ccccc3C23CCCCC3)nn1 (stereo not drawn) [Compound 11q, 2-((1-(2-hydroxyphenyl)-1 H-1,2,3-triazol-4-yl)methyl)-2,3,4,5-tetrahydrospiro[benzo[c]azepine-1,1’-cyclohexan]-5-ol]",8.72 ± 0.71 µM,156.8 to 157.2 °C,13.2 ± 4.09 µM,> 50 µM,10.6 ± 1.2 µM
–,–,–,–,"Oc1cccc(-n2cc(CN3CCC(O)c4ccccc4C34CCCCC4)nn2)c1 (stereo not drawn) [Compound 11r, 2-((1-(3-hydroxyphenyl)-1 H-1,2,3-triazol-4-yl)methyl)-2,3,4,5-tetrahydrospiro[benzo[c]azepine-1,1’-cyclohexan]-5-ol]",> 50 µM,157.4 to 158.6 °C,3.9 ± 0.26 µM,12.1 ± 0.98 µM,11.9 ± 5.74 µM
–,–,–,–,"Oc1ccc(-n2cc(CN3CCC(O)c4ccccc4C34CCCCC4)nn2)cc1 (stereo not drawn) [Compound 11s, 2-((1-(4-hydroxyphenyl)-1 H-1,2,3-triazol-4-yl)methyl)-2,3,4,5-tetrahydrospiro[benzo[c]azepine-1,1’-cyclohexan]-5-ol]",> 50 µM,171.1 to 172.3 °C,> 50 µM,> 50 µM,> 50 µM
–,–,–,–,"N#Cc1ccccc1-n1cc(CN2CCC(O)c3ccccc3C23CCCCC3)nn1 (stereo not drawn) [Compound 11t, 2-(4-((5-hydroxy-4,5-dihydrospiro[benzo[c]azepine-1,1’-cyclohexan]-2(3 H)-yl)methyl)-1 H-1,2,3-triazol-1-yl)benzonitrile]",> 50 µM,–,> 50 µM,> 50 µM,> 50 µM
–,–,–,–,"N#Cc1cccc(-n2cc(CN3CCC(O)c4ccccc4C34CCCCC4)nn2)c1 (stereo not drawn) [Compound 11u, 3-(4-((5-hydroxy-4,5-dihydrospiro[benzo[c]azepine-1,1’-cyclohexan]-2(3 H)-yl)methyl)-1 H-1,2,3-triazol-1-yl)benzonitrile]",> 50 µM,–,> 50 µM,> 50 µM,> 50 µM
–,–,–,–,"N#Cc1ccc(-n2cc(CN3CCC(O)c4ccccc4C34CCCCC4)nn2)cc1 (stereo not drawn) [Compound 11v, 4-(4-((5-hydroxy-4,5-dihydrospiro[benzo[c]azepine-1,1’-cyclohexan]-2(3 H)-yl)methyl)-1 H-1,2,3-triazol-1-yl)benzonitrile]",> 50 µM,–,> 50 µM,> 50 µM,> 50 µM
13 ± 0.28 µM,2.41 ± 0.13 µM,13.5 ± 0.17 µM,4.91 ± 0.11 µM,"CNCc1ccc(-c2[nH]c3cc(F)cc4c3c2CCNC4=O)cc1 [Rucaparib, reference compound]",–,–,–,–,–
